One may read the EC50 as the midpoint of the concentration-response curve.

For one experiment, the system named is Cell Necrosis. Put plainly: Cell necrosis assay / cell viability assay (necrosis inhibitor activity). The experiment is classed as cell-based. The conditions noted are these: necrosis inhibitor activity; EC data for 14-191 extrapolated; read-out: EC50.
Consider `O=C(N1CC(Cc2ccccc2Cl)C1)N1N=CCC1c1ccccc1` (stereo not drawn) [Compound 47, (3-(2-chlorobenzyl)azetidin-1-yl)(5-phenyl-4,5-dihydro-1H-pyrazol-1-yl)methanone], for which the EC50 is 0.001 to 1 µM. In the case of `O=C(N1CC(Oc2ccc(F)cc2F)C1)N1N=CCC1c1ccccc1` (stereo not drawn) [Compound 63, (3-(2,4-difluorophenoxy)azetidin-1-yl)(5-phenyl-4,5-dihydro-1H-pyrazol-1-yl)methanone], the 50% effective concentration (EC50) is 0.001 to 1 µM. With `O=C(N1CC(Oc2ccccc2Cl)C1)N1N=CCC1c1ccccc1` (stereo not drawn) [Compound 64, (3-(2-chlorophenoxy)azetidin-1-yl)(5-phenyl-4,5-dihydro-1H-pyrazol-1-yl)methanone], the EC50 was 0.001 to 1 µM. As to `CNC(=O)c1csc(OC2CN(C(=O)N3N=CCC3c3cc(F)cc(F)c3)C2)n1` (stereo not drawn) [Compound 171], the EC50 is 0.001 to 1 µM. Take `CC(c1ccccc1)C1CN(C(=O)N2N=CCC2c2ccccc2)C1` (stereo not drawn) [Compound 124, (5-phenyl-4,5-dihydro-1H-pyrazol-1-yl)(3-(1-phenylethyl)azetidin-1-yl)methanone]: the concentration giving a half-maximal response (EC50) is 1 to 10 µM.

Regarding `O=C(N1CCN(c2cnccn2)CC1)N1N=CCC1c1ccccc1` (stereo not drawn) [Compound 86, (5-phenyl-4,5-dihydro-1H-pyrazol-1-yl)(4-(pyrazin-2-yl)piperazin-1-yl)methanone], the EC50 is 0.001 to 1 µM. For the compound `O=C(N1CC(Nc2ccccc2)C1)N1N=CCC1c1ccccc1` (stereo not drawn) [Compound 19, (5-phenyl-4,5-dihydro-1H-pyrazol-1-yl)(3-(phenylamino)azetidin-1-yl)methanone], the EC50 was 1 to 10 µM. In the case of `O=C(N1CCN(c2ccncn2)CC1)N1N=CCC1c1ccccc1` (stereo not drawn) [Compound 90, (5-phenyl-4,5-dihydro-1H-pyrazol-1-yl)(4-(pyrimidin-4-yl)piperazin-1-yl)methanone], the EC50 is 1 to 10 µM. As to `CNC(=O)c1nc(OC2CN(C(=O)N3N=CCC3c3cc(F)cc(F)c3)C2)sc1F` (stereo not drawn) [Compound 170], the EC50 is 0.001 to 1 µM.

Regarding `O=C(N1CC(=Cc2ccc(=O)[nH]c2)C1)N1N=CCC1c1cc(F)cc(F)c1` (stereo not drawn) [Compound 187], the EC50 is 0.001 to 1 µM.

With `Cn1c(OC2CN(C(=O)N3N=CCC3c3cc(F)cc(F)c3)C2)cccc1=O` (stereo not drawn) [Compound 188], the EC50 was 0.001 to 1 µM.

With `O=C(N1CC(Cc2ccc(F)cc2)C1)N1OCC[C@H]1c1ccccc1` [Compound 79, (S)-(3-(4-fluorobenzyl)azetidin-1-yl)(3-phenylisoxazolidin-2-yl)methanone], the EC50 is 0.001 to 1 µM. As for `O=C(N1CC(Oc2ccccc2F)C1)N1N=CCC1c1ccccc1` (stereo not drawn) [Compound 60, (3-(2-fluorophenoxy)azetidin-1-yl)(5-phenyl-4,5-dihydro-1H-pyrazol-1-yl)methanone], the EC50 is 0.001 to 1 µM. Same read-out and setting: for `Nc1ccnc(N2CCN(C(=O)N3N=CCC3c3ccccc3)CC2)n1` (stereo not drawn) [Compound 102, (4-(4-aminopyrimidin-2-yl)piperazin-1-yl)(5-phenyl-4,5-dihydro-1H-pyrazol-1-yl)methanone] the value was 1 to 10 µM; for `O=C(N1CC(Cc2ccc3nc[nH]c3c2)C1)N1N=CCC1c1cc(F)cc(F)c1` (stereo not drawn) [Compound 191], 0.001 to 1 µM; for `O=C(N1CC[C@H](Oc2ccccc2)C1)N1N=CCC1c1ccccc1` (stereo partly drawn) [Compound 27B, ((S)-3-phenoxypyrrolidin-1-yl)(S-phenyl-4,5-dihydro-1H-pyrazol-1-yl)methanone], 0.001 to 1 µM. Consider `O=C(N1CC(=Cc2ccc(F)c(F)c2)C1)N1N=CCC1c1cc(F)cc(F)c1` (stereo not drawn) [Compound 140, (3-(3,4-difluorobenzylidene)azetidin-1-yl)(5-(3,5-difluorophenyl)-4,5-dihydro-1H-pyrazol-1-yl)methanone], for which the EC50 was 0.001 to 1 µM. Regarding `O=C(N1CC[C@@H](Oc2cccc(F)c2)C1)N1N=CCC1c1ccccc1` (stereo partly drawn) [Compound 32, ((R)-3-(3-fluorophenoxy)pyrrolidin-1-yl)(5-phenyl-4,5-dihydro-1H-pyrazol-1-yl)methanone], the EC50 was 0.001 to 1 µM.

The experiment is the same for the next values; noted with them: necrosis inhibitor activity; compounds outside 14-191; read-out: EC50.
For the compound `NC(=O)c1cnc(OC2CN(C(=O)N3N=CC[C@H]3c3cc(F)cc(F)c3)C2)s1` [Compound 280, (S)-2-((1-(5-(3,5-difluorophenyl)-4,5-dihydro-1H-pyrazole-1-carbonyl)azetidin-3-yl)oxy)thiazole-5-carboxamide], the EC50 was 0.001 to 1 µM. For the compound `N#Cc1cc(O[C@@H]2CCN(C(=O)N3N=CC[C@H]3c3cc(F)cc(F)c3)C2)ncn1` [Compound 360, 6-(((R)-1-((S)-5-(3,5-difluorophenyl)-4,5-dihydro-1H-pyrazole-1-carbonyl)pyrrolidin-3-yl)oxy)pyrimidine-4-carbonitrile], the EC50 was in the range of 0.001 to 1 µM. Consider `CC1CCCN(C(=O)N2N=CCC2c2ccccc2)C1` (stereo not drawn) [Compound 9, (3-methylpiperidin-1-yl)(5-phenyl-4,5-dihydro-1H-pyrazol-1-yl)methanone], for which the EC50 lay in the range of 0.001 to 1 µM. Take `O=C(Nc1nc(N2CCN(C(=O)N3N=CC[C@H]3c3cc(F)cc(F)c3)CC2)ncc1F)C1CCCC1` [Compound 325, (S)—N-(2-(4-(5-(3,5-difluorophenyl)-4,5-dihydro-1H-pyrazole-1-carbonyl)piperazin-1-yl)-5-fluoropyrimidin-4-yl)cyclopentanecarboxamide]: the EC50 is 0.001 to 1 µM. Still for that read-out and setting: for `NC(=O)c1ccnc(O[C@@H]2CCN(C(=O)N3N=CC[C@H]3c3cc(F)cc(F)c3)C2)n1` [Compound 332, 2-(((R)-1-((S)-5-(3,5-difluorophenyl)-4,5-dihydro-1H-pyrazole-1-carbonyl)pyrrolidin-3-yl)oxy)pyrimidine-4-carboxamide] the value was 0.001 to 1 µM. Same read-out and setting: for `O=C(Nc1nc(N2CCN(C(=O)N3N=CC[C@H]3c3cc(F)cc(F)c3)CC2)ncc1F)C1CCC1` [Compound 328, (S)—N-(2-(4-(5-(3,5-difluorophenyl)-4,5-dihydro-1H-pyrazole-1-carbonyl)piperazin-1-yl)-5-fluoropyrimidin-4-yl)cyclobutanecarboxamide] the value was 0.001 to 1 µM. Still for that read-out and setting: the figure for `O=C(N1CC(Oc2ccc(F)cn2)C1)N1N=CCC1c1cc(F)cc(F)c1` (stereo not drawn) [Compound 212, (5-(3,5-difluorophenyl)-4,5-dihydro-1H-pyrazol-1-yl)(3-((5-fluoropyridin-2-yl)oxy)azetidin-1-yl)methanone] is 0.001 to 1 µM. Take `O=C(N1Cc2ccccc2C1)N1N=CCC1c1ccccc1` (stereo not drawn) [Compound 13, Isoindolin-2-yl(5-phenyl-4,5-dihydro-1H-pyrazol-1-yl)methanone]: the EC50 is 0.001 to 1 µM.

Turning to `N#Cc1ccc(F)c(C=C2CN(C(=O)N3N=CC[C@H]3c3cc(F)cc(F)c3)C2)c1` [Compound 319, (S)-3-((1-(5-(3,5-difluorophenyl)-4,5-dihydro-1H-pyrazole-1-carbonyl)azetidin-3-ylidene)methyl)-4-fluorobenzonitrile], the concentration giving a half-maximal response (EC50) fell in the range of 0.001 to 1 µM. As to `O=C(N1CC(Oc2ccc3occc3c2)C1)N1N=CCC1c1cc(F)cc(F)c1` (stereo not drawn) [Compound 216, (3-(benzofuran-5-yloxy)115zetidine-1-yl)(5-(3,5-difluorophenyl)-4,5-dihydro-1H-pyrazol-1-yl)methanone], the EC50 fell in the range of 0.001 to 1 µM. For the compound `O=C1Nc2cc(OC3CN(C(=O)N4N=CC[C@H]4c4cc(F)cc(F)c4)C3)c(F)cc2OC1CCO` (stereo partly drawn) [Compound 246, 6-((1-((S)-5-(3,5-difluorophenyl)-4,5-dihydro-1H-pyrazole-1-carbonyl)azetidin-3-yl)oxy)-7-fluoro-2-(2-hydroxyethyl)-2H-benzo[b][1,4]oxazin-3(4H)-one], the EC50 is 0.001 to 1 µM. `O=C1COc2cccc(O[C@@H]3CCN(C(=O)N4N=CC[C@H]4c4cc(F)cc(F)c4)C3)c2N1` [Compound 243, 5-(((R)-1-((S)-5-(3,5-difluorophenyl)-4,5-dihydro-1H-pyrazole-1-carbonyl)pyrrolidin-3-yl)oxy)-2H-benzo[b][1,4]oxazin-3(4H)-one]: the EC50 was in the range of 0.001 to 1 µM.

With `O=C(N1CC(=Cc2ccc(F)cc2)C1)N1N=CCC1c1cc(F)cc(F)c1` (stereo not drawn) [Compound 306, (5-(3,5-difluorophenyl)-4,5-dihydro-1H-pyrazol-1-yl)(3-(4-fluorobenzylidene)azetidin-1-yl)methanone], the EC50 fell in the range of 0.001 to 1 µM. Same read-out and setting: for `O=C(N1CC(=Cc2ccn3nccc3c2)C1)N1N=CC[C@H]1c1cc(F)cc(F)c1` [Compound 288, (S)-(5-(3,5-difluorophenyl)-4,5-dihydro-1H-pyrazol-1-yl)(3-(pyrazolo[1,5-a]pyridin-5-ylmethylene)azetidin-1-yl)methanone] the value was 0.001 to 1 µM; for `N#Cc1nccc(N[C@@H]2CCN(C(=O)N3N=CC[C@H]3c3cc(F)cc(F)c3)C2)n1` [Compound 348], 0.001 to 1 µM; for `O=C(N1CC(=Cc2cnc3c(F)n[nH]c3c2)C1)N1N=CC[C@H]1c1cc(F)cc(F)c1` [Compound 327], 0.001 to 1 µM. Regarding `N#Cc1ccnc(O[C@@H]2CCN(C(=O)N3N=CC[C@H]3c3cc(F)cc(F)c3)C2)c1` [Compound 336, 2-(((R)-1-((S)-5-(3,5-difluorophenyl)-4,5-dihydro-1H-pyrazole-1-carbonyl)pyrrolidin-3-yl)oxy)isonicotinonitrile], the EC50 fell in the range of 0.001 to 1 µM. Regarding `N#Cc1cc(O[C@@H]2CCN(C(=O)N3N=CC[C@H]3c3cc(F)cc(F)c3)C2)ccn1` [Compound 340, 4-(((R)-1-((S)-5-(3,5-difluorophenyl)-4,5-dihydro-1H-pyrazole-1-carbonyl)pyrrolidin-3-yl)oxy)picolinonitrile], the EC50 was 0.001 to 1 µM. With `N#Cc1cc(Cl)nc(O[C@H]2CCN(C(=O)N3N=CC[C@H]3c3cc(F)cc(F)c3)C2)c1` [Compound 330, 2-chloro-6-(((S)-1-((S)-5-(3,5-difluorophenyl)-4,5-dihydro-1H-pyrazole-1-carbonyl)pyrrolidin-3-yl)oxy)isonicotinonitrile], the EC50 is 0.001 to 1 µM. Consider `NC(=O)c1cc(F)c(OC2CN(C(=O)N3N=CC[C@H]3c3cc(F)cc(F)c3)C2)c(F)c1` [Compound 222, (S)-4-((1-(5-(3,5-difluorophenyl)-4,5-dihydro-1H-pyrazole-1-carbonyl)azetidin-3-yl)oxy)-3,5-difluorobenzamide], for which the EC50 fell in the range of 0.001 to 1 µM.

As to `Cc1n[nH]c2cc(C=C3CN(C(=O)N4N=CC[C@H]4c4cc(F)cc(F)c4)C3)ccc12` [Compound 289, (S)-(5-(3,5-difluorophenyl)-4,5-dihydro-1H-pyrazol-1-yl)(3-((3-methyl-1H-indazol-6-yl)methylene)azetidin-1-yl)methanone], the EC50 lay in the range of 0.001 to 1 µM.

The values above are taken from patent US12662469B2 (SIRONAX LTD, priority 2018, dated 2026).
